The values below come from patent US20250129097.

The conditions of series [1]: ester bond, 18-membered ring, EDCI/HOBt/DIEA, DCM.
The conditions of series [2]: from CCn1c(-c2cc(N3CCN(c4cccc(COC=O)c4)CC3)cnc2[C@H](C)OC)c(CC(C)(C)CO)c2cc([C@@H]3C[C@H]3CC[C@H](NC(=O)OC(C)(C)C)C(=O)N3CCC[C@@H](C(=O)O)N3)ccc21; ester bond; 18-membered ring; EDCI/HOBt/DIEA; DCM; 10.8 mM; 45.0 °C; 16.0 h.

Read-outs that look alike come from different tables or passages of the source.

In the case of `CCn1c(-c2cccnc2[C@H](C)OC)c2c3cc(ccc31)[C@@H]1C[C@H]1OC[C@H](NC(=O)OC(C)(C)C)C(=O)N1CCC[C@H](N1)C(=O)OCC(C)(C)C2`, the ring closure, isolated yield in series [1] (from CCn1c(-c2cccnc2[C@H](C)OC)c(CC(C)(C)CO)c2cc([C@@H]3C[C@H]3OC[C@H](NC(=O)OC(C)(C)C)C(=O)N3CCC[C@@H](C(=O)O)N3)ccc21, 13.8 mM, 20.0 °C, 12.0 h) was determined as 37%.
As to `CCn1c(-c2cc(N3CCN(C(=O)OCc4ccccc4)CC3)cnc2[C@@H](C)OC)c(CC(C)(C)CO)c2cc([C@H]3C[C@@H]3N(C)C[C@@H](NC(=O)OC(C)(C)C)C(=O)N3CCC[C@@H](C(=O)OC)N3)ccc21`, the ring closure, isolated yield in series [1] (the molecule shown is the open-chain precursor, 10.3 mM, 35.0 °C) is 16%.
In series [2], `CCn1c(-c2cc(N3CCN(c4cccc(COC=O)c4)CC3)cnc2[C@H](C)OC)c2c3cc(ccc31)[C@@H]1C[C@H]1CC[C@H](NC(=O)OC(C)(C)C)C(=O)N1CCC[C@H](N1)C(=O)OCC(C)(C)C2` gave a ring closure, yield after HPLC of 4.8%.
